From patent US20080008991A1, “SYSTEM AND METHOD FOR OPTIMIZING DRUG THERAPY FOR THE TREATMENT OF DISEASES” (priority 2000, published 2008)
Like-named read-outs stand apart in the source and are kept apart here.

Tests used:
HIV-1 = experiment: NIQ as predictor of virologic outcome at week 24; type: in vivo, human (patients)
Method: The normalized inhibitory quotient (NIQ) was determined as: [formula]
Where the IQ in an individual patient (IQpatient) was calculated as ratio of the patient's trough concentration (Cmin) to the susceptibility of the patient's virus to the drug, expressed as fold change compared to wild type virus (Virtual Phenotype). The IQpt was then related to the reference inhibitory quotient (IQref), in which the mean population trough concentration of the drug from the product label was divided by the cut-off value of the fold change for susceptible viruses.
For amprenavir, nelfinavir, and ritonavir, the concentration 12 hours after dosing was used as the Cmin. […]

[1] = Amprenavir plasma trough concentration by LC-MS/MS in treatment-experienced patients; details: human, in vivo; median; 12 hours after dosing; amprenavir 1200 mg bid with ritonavir or nelfinavir; 17 patients; read-out: Cmin
Method: Patients were enrolled into three parallel treatment groups that included abacavir 300 mg bid, amprenavir 1200 mg bid, and efavirenz 600 mg daily with either low dose ritonavir at 200 mg BID, high dose ritonavir at 500 mg bid, or nelfinavir 1250 mg bid.
Genotyping (VircoGEN II™, VIRCO) and VIRTUAL PHENOTYPE™ were performed on baseline samples. Viral load data were collected at baseline (mean of two pre-therapy samples) and at week 24. Serial pharmacokinetic samples were collected over 12 hours after week 3 for ritonavir-boosted regimens and after week 2 for nelfinavir-boosted regimens.
Amprenavir concentrations in plasma were determined by a validated LC-MS/MS method.
For amprenavir, nelfinavir, and ritonavir, the concentration 12 hours after dosing was used as the Cmin. For each drug, relationships between viral load change at week 24 and the Cmin, fold-change in resistance, and NIQ were fit to a sigmoidal maximum effect model.

HIV = details: lopinavir plus efavirenz and 2 NRTIs, cited from earlier work

| SMILES | patients with decrease in viral load to <400 copies/ml at week 24 (HIV-1; patients achieving NIQ>3.0) | patients with decrease in viral load to <400 copies/ml at week 24 (HIV-1; patients with NIQ<3.0) | concentration at 12 h [1] [ng/mL] | % of patients with viral load below 400 copies/mL at week 24 (HIV; lopinavir IQ 4-15) [%] | % of patients with viral load below 400 copies/mL at week 24 (HIV; lopinavir IQ <4) [%] | % of patients with viral load below 400 copies/mL at week 24 (HIV; lopinavir IQ >15) [%] |
| --- | --- | --- | --- | --- | --- | --- |
| CC(C)CN(C[C@@H](O)[C@H](Cc1ccccc1)NC(=O)O[C@H]1CCOC1)S(=O)(=O)c1ccc(N)cc1 [Amprenavir, amprenavir] | 7/8 | 1/9 | 1270 | – | – | – |
| Cc1cccc(C)c1OCC(=O)N[C@@H](Cc1ccccc1)[C@@H](O)C[C@H](Cc1ccccc1)NC(=O)[C@H](C(C)C)N1CCCNC1=O [lopinavir] | – | – | – | 80 | 70 | 100 |
